Reference: patent US20100062059A1, “S-Nitrosothiols Containing Composition for the Treatment of Fatty Liver Diseases, Obesity and Other Diseases Associated with the Metabolic Syndrome and the Use of Such Compositions” (PROTAGEN AKTIENGESELLSCHAFT, priority 2006, published 2010)

How the values were obtained:
[1] = system: Wistar rats with hepatic steatosis induced by a choline-deficient diet; test: Hydroperoxide (LOOH) concentration in the liver of rats with diet-induced hepatic steatosis; format: in vivo; conditions: control group 3.2±0.4
Method: Wistar rats with hepatic steatosis induced by a choline-deficient diet were assigned to three groups to perform the tests with the administration of S-nitroso-N-acetylcysteine (SNAC), which is one of the active principles of the present invention, and to evaluate the concentration of hydroperoxides (LOOH) in the liver.
A first group of animals, group 1, was treated with a solution of S-nitroso-N-acetylcysteine, which was administrated orally to the animals at a dose of 1.4 mg/kg/day. A second group of animals, group 2, was treated with N-acetylcysteine (NAC), which was also administrated orally to the animals at a dose of 7.0 mg/kg/day.

[2] = system: human low density lipoprotein (LDL); test: CuCl2-catalyzed oxidation of LDL suspension, fluorescence spectrophotometry; format: biochemical; conditions: LDL 200 μg/mL, CuCl2 300 μmol/L, 15 hours, SNAC 300 μmol/L, pH 7.4
Method: For this example, approximately 15 mL of a human low density lipoprotein (LDL) suspension at a concentration of around 200 μg/mL, in phosphate buffer, pH 7.4, aerated PBS (in vitro) were previously prepared and initially divided into three parts. A first part (a) with approximately 5 mL consisting of the previously prepared suspension solely; a second part (b) with approximately 5 mL, consisting of the LDL suspension incubated in a CuCl2 solution at a preferential concentration of 300 μmol/L for a period of around 15 hours; and a third part (c) with approximately 5 mL, consisting of the LDL suspension incubated in a CuCl2 solution at a preferential concentration of 300 μmol/L for a period of around 15 hours, in the presence of SNAC at a preferential concentration of 300 μmol/L.
A sample of each part was submitted to fluorescence spectrophotometry. FIG. 2 features the emission spectrum for the analyzed samples. […] The 410- and 440-nm emission peaks in the LDL suspension fluorescence spectrum correspond to the formation of a Schiff base adduct between the lipid oxidation products contained in the LDL particles (mainly the malondialdehyde [MDA]) and the free amino groups on LDL apolipoprotein (mainly apo-B-100), and are known as LDL oxidation markers.

[3] = system: soy lipoxigenase (SLO); test: Linoleic acid (LA) peroxidation catalyzed by soy lipoxigenase, absorbance at 234 nm; format: biochemical
Method: This referred effect may be shown by the analysis of two kinetic parameters: initial velocity and extension of the peroxidation reaction until the chemical equilibrium is reached. Such parameters were analyzed by ultraviolet spectrophotometry and the kinetic curves (a′, b′, c′ and d′) were obtained from absorbance variation monitored though the band with peak at 234 nm at a preferential temperature of 37° C. This band value is characteristic for combined dienes and may, therefore, act as LA peroxidation marker. For this Example, the first curve (a′) refers to a sample of linoleic acid whose peroxidation was catalyzed by incubation with soy lipo-oxygenase at a preferential concentration of 0.056 μmol/L; the second curve (b′) refers to a sample of linoleic acid whose peroxidation was catalyzed by incubation of the linoleic acid with a mixture of soy lipo-oxygenase in the presence of NAC at a preferential concentration of 560 μmol/L; the third curve (c′) refers to a sample of linoleic acid whose peroxidation was catalyzed by incubation of soy Lipo-oxygenase in the presence of SNAC at a preferential concentration of 56 μmol/L; and the fourth curve (d′) refers to a sample of linoleic acid whose peroxidation was catalyzed by incubation of soy lipo-oxygenase in the presence of SNAC at a preferential concentration of 560 μmol/L. FIG. 3 illustrates the absorbance curves obtained for the groups of the present Example. The interpretation of the curves is given by the initial velocity, which corresponds to the inclination of the initial section of the curves within approximately 10 seconds, and the extension of the reaction, which corresponds to the absorbance values on the plateaus of the curves.

[4] = system: Rats fed a choline-deficient diet; test: Liver histology (hematoxylin and eosin) of rats fed a choline-deficient diet; format: in vivo; conditions: control: moderate macrovacuolar and microvacuolar steatosis in the periportal zone
Excerpt: Rats fed a choline-deficient diet were selected to compose the Control Group when compared to SNAC-treated rats. Hematoxylin and eosin-stained histological sections of hepatic tissue were examined under optical microscopy, as shown on FIGS. 5A and 5B.

[5] = system: ob/ob mice; test: Liver histology (hematoxylin and eosin) of ob/ob mice on MCD or hyperlipidemic diet; format: in vivo
Excerpt: For the Example 4, ob/ob mice were selected. A first group of mice was fed a methionine/choline-deficient diet (Group MCD) and a second group of mice was fed a hyperlipidemic diet (Group H).
Animals were selected from both groups and hematoxylin and eosin-stained histological sections of the hepatic tissue of these animals were obtained and examined under optical microscopy.
Other animals selected from both groups of mice, Group MCD and Group H, were submitted to a 30-day treatment consisting of SNAC administration. After the 30th day, hematoxylin and eosin-stained histological sections of the hepatic tissue of these animals were obtained and examined under optical microscopy.
The remaining animals in Groups H and MCD were maintained on these diets up the 60th day and were put on SNAC administration from the 31st day on. After the 60th day of treatment, hematoxylin and eosin-stained histological sections of the hepatic tissue of these animals were obtained and examined under optical microscopy.

[6] = Body mass variation of animals on MCD or hyperlipidemic diet; format: in vivo; conditions: SNAC by gavage, four weeks
Excerpt: Data are expressed as means±standard deviation.

[7] = SNAC 56 μmol/L, reduction compared with NAC 560 μmol/L, curve c′
[8] = NAC 560 μmol/L, LA 18.76 μmol/L, SLO 0.056 μmol/L, 37° C., curve b′

extension of the LA peroxidation reaction [3, 7]	initial velocity of the LA peroxidation reaction [3, 7]	extension of the LA peroxidation reaction [3, 8]	initial velocity of the LA peroxidation reaction [3, 8]	Structure (SMILES)	hydroperoxide concentration in the liver ([1]; group 1, oral, 1.4 mg/kg/day)	410 and 440 nm emission peaks (LDL oxidation markers) [2]	extension of the LA peroxidation reaction ([3]; SNAC 560 μmol/L, curve d′)	initial velocity of the LA peroxidation reaction ([3]; SNAC 560 μmol/L, curve d′)	histological characteristics of hepatic tissue [4]	histological characteristics of the liver ([5]; Group H, diet concomitantly with 30-day SNAC administration)	histological characteristics of the liver ([5]; Group H, diet to 60th day, SNAC from the 31st to the 60th day)	histological characteristics of the liver ([5]; Group MCD, diet concomitantly with 30-day SNAC administration)	histological characteristics of the liver ([5]; Group MCD, diet to 60th day, SNAC from the 31st to the 60th day)	body mass increase ([6]; group H (untreated 28% increase))	body mass increase ([6]; group MCD)	hydroperoxide concentration in the liver ([1]; group 2, oral, 7.0 mg/kg/day)
reduction is more accentuated	reduction is more accentuated	–	–	CC(=O)N[C@@H](CSN=O)C(=O)O [SNAC, S-nitroso-N-acetylcysteine]	0.3±0.1 nmol/g protein	blockage of the increase of 410 and 440 nm peaks	reduction is considerably much pronounced	reduction is considerably much pronounced	normal liver in the periportal zone	consistent with normal livers	consistent with those of normal livers	consistent with normal livers	consistent with those of normal livers	remarkable reduction of body mass increase	practically eliminated the body mass increase	–
–	–	reduced the extension	reduced the extension and velocity	CC(=O)N[C@@H](CS)C(=O)O [NAC, N-acetylcysteine, reference compound]	–	–	–	–	–	–	–	–	–	–	–	0.7±0.2 nmol/g protein
